The results in this text go back to patent US6627632B2, “Compositions and methods for the treatment of anorectal disorders” (Cellegy Pharmaceuticals, Inc., priority 1998, dated 2003).

One test deals with internal anal sphincter. Nature of the test: rat internal anal sphincter (IAS) relaxation model: internal anal sphincter pressure (IASP) in anesthetized rats. In kind it is in vivo. The note with it: for relaxation of the rat IAS / reduction of IASP (summary statement in the description): rat IAS in vivo, no dose stated; for potentiation with NTG, comparison of PDE V inhibitors (summary): in vivo model, i.p. PDE V inhibitor plus NTG; for drop of IASP: subsequent dose of 1% nitroglycerin, morning after dibutyryl-cGMP. The method, then: Male Sprague-Dawley rats (300-400 gm) were anesthetized with ketamine (90 mg/kg), xylazine (9 mg/kg) given intramuscularly and supplemented as needed with ⅓^rd dose. Rats were gently restrained on their backs on a heated surgical table (Harvard Apparatus) for the duration of the experiments. The diuretic effects of anesthesia was offset by rehydration with saline through an intraperitoneal implanted 24 gauge angiocatheter (VWR, San Francisco, Calif.). The constriction/relaxation measurement assembly included a Millar catheter/transducer (1.67 mm diameter.) connected to a Digi-Med Low Pressure Analyzer (Micro-Med) accurate for pressure measurements between −50 and 150 mmHg. The data were integrated and converted to waveforms with the Digi-Med System Integrator software. Blood pressure changes were monitored using an arterial catheter/transducer and a Digi-Med Blood Pressure Analyzer with the DMSI software. Respiratory changes were monitored using a mercury strain gauge/transducer, wrapped around the rib-cage of the rat, hooked up to a Digi-Med Analog Signal Analyzer along with the DMSI software. Drug delivery was accomplished through two Hamilton syringes with no dead space using PE 10 tubing adjacent to the catheter sensor.
In this example, male Sprague-Dawley rats (250-300 g each) from Charles River were used. The rats were anesthetized intramuscularly with ketamine (90 mg/kg) and xylazine (9 mg/kg) and kept warm on a heated surgical table. All internal anal sphincter pressures (IASP) were measured with Millar catheter/transducers (MPC-500 mikrotip; Millar Instruments, Houston) on low pressure analyzers and blood pressure analyzers and recorded by DMSI software provided by Micro-Med (Louisville). Rats were provided with saline i.p. for rehydration due to the diuretic effects of the anesthesia and re-anesthetized as needed with approximately ⅓ the original dosage. In most experiments, the IASP was allowed to reach a stable baseline level prior to drug delivery. Drugs were delivered to the anal sphincter mainly via PE 20 tubing attached to the catheter(s) near the sensor(s) from 100 μl or 250 μl Hamilton syringes either manually or by infusion with a programmable Harvard automatic infusion pump.

The nature of test [1]: cardiovascular tolerance to repeated NTG dosing, measured in vivo by mean arterial blood pressure. The note with it: rat model, repeated dosing of NTG. An excerpt:
(§1) One issue with chronic or subchronic therapy with nitric oxide or nitric oxide donors such as NTG is the extent of any tachyphylaxis or tolerance to the relaxant effect of nitric oxide. Clinical studies have shown that the human cardiovascular system develops tolerance to nitric oxide donors. […] Thus, it seemed likely that the IAS would also develop tolerance to the effects of nitric oxide upon repeated or prolonged dosing.

A further test concerns muscle of the IAS. Nature of the test: in vitro study of NTG-induced increases in cGMP levels in the muscle of the IAS. Particulars: compared with vascular smooth muscle.
A further test has as its system vascular smooth muscle. Kind of test: in vitro assay of NTG-induced increases in cGMP levels in vascular smooth muscle.
From the text: as §1

Where [2] appears, read: in 5% DMSO/Acetone:Olive oil 1:1, infused continuously at 20 μg/hour.
Setting [3] is: in saline, infused continuously to the IAS at 20 μg/hour.
Where [4] appears, read: 10 mg in 100 μl 1M2P i.p. 30 minutes prior to NTG bolus doses (20 μg/min every 30 minutes).
Setting [5] is: continuously infused at 20 μg/hour in 5% dextrose.

Structures can show the parent of a compound that is named as a salt.

Consider `NCCc1cc(O)c(O)cc1O` [6-hydroxydopamine], for which the “course of IASP by day 19” value with internal anal sphincter (200 μg bolus in saline to the IAS each day for 5 days, day 19) is given as “partial recovery in IASP”. The “average IASP below the original baseline pressure” value with internal anal sphincter (200 μg bolus in saline to the IAS each day for 5 days, day 22) is on record as 36%. Also, in the test on internal anal sphincter (200 μg bolus in saline to the IAS each day for 5 days, through day 16, 11 days after termination of treatment), the “course of IASP through day 16” value is given as “continuous drop in IASP”. Besides, in the test with internal anal sphincter (following 5 daily topical doses of 200 μg in saline), the “period of prolonged reduction in IASP” value is recorded as ≥ 3 week.

Turning to `CC1=NS(=O)(=O)c2cc(Cl)ccc2N1` [Diazoxide], the “effect on IASP” value with internal anal sphincter (setting [2]) is on record as “dramatic drop in IASP”. In the test with internal anal sphincter, the “relaxation of the rat IAS / reduction of IASP (summary statement in the description)” value is on record as “relaxed the rat IAS in vivo”.

With `CCCC(=O)Nc1ncnc2c1ncn2[C@@H]1O[C@@H]2COP(=O)(O)O[C@H]2[C@H]1OC(=O)CCC` [Dibutyryl cAMP, N6,2′-O-Dibutyryladenosine-3′,5′-cyclic monophosphate, sodium salt monohydrate], the “effect on IASP” value in the test with internal anal sphincter (setting [3]) is reported as “minor depression in IASP”. Moreover, the “efficacy of cAMP analogs relative to each other” value in the test with internal anal sphincter (rat model, aqueous-soluble analogs) was “more efficacious in the rat model than the 8-bromo derivative”.

As to `COc1ccc([C@@H]2Sc3ccccc3N(CCN(C)C)C(=O)[C@@H]2OC(C)=O)cc1` [Diltiazem], the “effect on IASP” value with internal anal sphincter (setting [3]) was “dramatic and sustained drop in IASP”.

Consider `OCCN(CCO)c1nc(N2CCCCC2)c2nc(N(CCO)CCO)nc(N3CCCCC3)c2n1` [Dipyridamole], for which, in the test on internal anal sphincter (10 mg in 100 μl 1M2P i.p. 50 minutes prior to NTG bolus doses (20 μg/min every 30 minutes)), the “duration of depression of IASP due to NTG relative to the vehicle-treated rat” value is given as “approximately twice”. Further, the “potentiation with NTG, comparison of PDE V inhibitors (summary)” value with internal anal sphincter was “less striking potentiation with NTG”.

Turning to `CC(C)Cn1c(=O)n(C)c(=O)c2[nH]cnc21` [IBMX, 3-Isobutyl-1-methylxanthine], the “effect on IASP” value in the test with internal anal sphincter (in 5% DMSO/Acetone:Olive oil 1:1, infused at 200 μg/hour) was “significant and sustained drop in IASP”; in the test on internal anal sphincter (setting [2]), “similar”. Also, the “time at which the drop in IASP leveled off” value with internal anal sphincter (in 5% DMSO/Acetone:Olive oil 1:1, infused at 200 μg/hour, after initiation of the infusion) stood at 1 h.

Regarding `Clc1ccc2ncnc(NCc3ccc4c(c3)OCO4)c2c1` [MBCQ, 4-((3,4-(Methylenedioxy)benzyl)amino)-6-chloroquinazoline], the “potentiation of NTG” value in the test with internal anal sphincter (setting [4]) is reported as “No noticeable potentiation of NTG”. In the test with internal anal sphincter, the “potentiation with NTG, comparison of PDE V inhibitors (summary)” value is reported as “did not demonstrate significant activity”.

For the compound `O=C(O)c1ccc(C2=C3C=CC(=N3)C(c3ccc(C(=O)O)cc3)=c3ccc([nH]3)=C(c3ccc(C(=O)O)cc3)c3ccc([n-]3)C(c3ccc(C(=O)O)cc3)c3ccc2[n-]3)cc1.[Cl-].[Mn+3]` (stereo not shown) [MnTBAP, Mn (III) tetrakis (4-benzoic acid) porphyrin chloride], the NO enhancing activity entry in the test with internal anal sphincter (rat IASP model, superoxide scavenger with NTG) is reported as “did not demonstrate significant NO enhancing activity”.

Turning to `CCCCOc1cc(CC2CNC(=O)N2)ccc1OC` (stereo not shown) [RO-20-1724, 4-(3-Butoxy-4-methoxybenzyl)-2-imidazolidinone], the “effect on IASP” value with internal anal sphincter (setting [2]) is “minimal”.

Take `Cn1c(=O)c2[nH]cnc2n(C)c1=O` [Theophylline]: the “effect on IASP” value was “minimal drop in average IASP” in the test on internal anal sphincter (continuously infused at 2 μg/hour in 5% dextrose, 3 hour experiment); “moderate drop in average IASP” in the test with internal anal sphincter (setting [5]); “dramatic and sustained drop in IASP” with internal anal sphincter (continuously infused at 200 μg/hour in 5% dextrose, 4 hour experiment). Moreover, the “relaxation of the rat IAS / reduction of IASP (summary statement in the description)” value with internal anal sphincter was “relaxed the rat IAS”.

On to `COc1ccc(CCN(C)CCCC(C#N)(c2ccc(OC)c(OC)c2)C(C)C)cc1OC` (stereo not shown) [Verapamil], for which, in the test on internal anal sphincter (setting [3]), the “effect on IASP” value was “dramatic and sustained drop in IASP”.

As for `CCCC(=O)Nc1nc2c(ncn2C2OC3COP(=O)([O-])OC3C2OC(=O)CCC)c(=O)[nH]1.[Na+]` (stereo not shown) [dibutyryl-cGMP, N2,2′-O-Dibutyrylguanosine-3′,5′-cyclic monophosphate, sodium salt], the “reduction of mean IASP” value in the test on internal anal sphincter (20 μl of a 10% solution in saline applied to the anal canal, over 2.5 hours following treatment) worked out at 45%. The compound also yielded an IASP still reduced in the test on internal anal sphincter (20 μl of a 10% solution in saline, by the following morning) of 34%. Further, the “drop of average IASP” value in the test on internal anal sphincter (20 μl of a 10% solution in saline, over the last hour prior to terminating the experiment) was 60%. Further, in the test with internal anal sphincter (further dose after IASP returned to pre-treatment levels, over the ensuing 3 hours and 10 minutes), the “lowering of IASP” value was determined as 15%.

`Cn1c(=O)c2c(ncn2CC(O)CO)n(C)c1=O` (stereo not shown) [dyphylline, 7-(2,3-dihydroxypropyl) theophylline]: in the test on internal anal sphincter (setting [5]), the “effect on IASP” value was “IAS relaxing effects”. For the same compound, in the test on internal anal sphincter, the “relaxation of the rat IAS / reduction of IASP (summary statement in the description)” value is listed as “reduce IASP”.

Regarding `CC(C)NCC(O)c1ccc(O)c(O)c1` (stereo not shown) [isoproterenol], the “effect on IASP” value is on record as “no significant effect on lowering IASP” in the test on internal anal sphincter (100 μl 1M2P vehicle i.p., 30 minutes later continuous infusion in saline at 0.2 μg/hour (sub-threshold dose)) and “dramatic drop in IASP” in the test with internal anal sphincter (bolus dose of 200 μg to the IAS).

With `Nc1cc(N2CCCCC2)nc(N)[n+]1[O-]` [minoxidil], the “reduction of the IASP” value in the test with internal anal sphincter (single 20 μl dose of a 4% solution in 62.5% propylene glycol, over 2.5 hours following treatment) is given as 64%.

With `O=[N+]([O-])OCC(CO[N+](=O)[O-])O[N+](=O)[O-]` [nitroglycerin], in test [1], the “cardiovascular tolerance (mean arterial blood pressure)” value is listed as “develops with repeated dosing”. Moreover, the entries for the “NTG-induced increases in cGMP levels” value with muscle of the IAS and in the test on vascular smooth muscle were “not as attenuated as those in vascular smooth muscle” and “attenuated dramatically”, respectively. Also, the “effect on resting IASP” value in the test with internal anal sphincter (0.1% NTG in 5% dextrose/water with 1% propylene glycol, bolus doses to the IAS at 20 μg/min every 30 minutes) was “dramatic drop in resting IASP followed by a complete recovery to resting levels”; in the test with internal anal sphincter (continuous infusion of NTG at 20 μg/hour, 4 hours), “steady and sustained decline in resting IASP”. Besides, the “nitrate related pressure tolerance” value in the test with internal anal sphincter (continuous NTG administration, 20 μg/hour, 4 hours) is “no nitrate related pressure tolerance was noted”; with internal anal sphincter (repeated NTG bolus administration, 20 μg/min every 30 minutes), “no nitrate related pressure tolerance was noted”. The “duration of depression of IASP due to NTG” value in the test with internal anal sphincter (control: vehicle 1M2P 100 μl i.p. 30 minutes prior to NTG bolus doses (20 μg/min every 30 minutes)) is reported as “constant with each dose”; in the test on internal anal sphincter (control: vehicle 1M2P 100 μl i.p. 50 minutes prior to NTG bolus doses (20 μg/min every 30 minutes)), “constant with each dose”; in the test on internal anal sphincter (control: vehicle 1M2P 100 μl i.p., first NTG dose after 2.75 hours (20 μg/min every 30 minutes)), “consistent with each NTG dose”. Moreover, the “tachyphylaxis to the relaxant effect on the IAS” value in the test with internal anal sphincter (repeated or prolonged dosing in vivo) is recorded as “does not develop”. Besides, the “drop of IASP” value was determined as 71% with internal anal sphincter (first 10 minutes following treatment) and 24% in the test with internal anal sphincter (for 30 minutes).

On to `COc1cc2nc(N3CCN(C(=O)c4ccco4)CC3)nc(N)c2cc1OC` [prazosin], for which, in the test on internal anal sphincter (in 5% DMSO/Acetone:Olive oil 1:1, infused at 20 μg/hour), the “time after which the drop in IASP plateaued” value was determined as 1 h. Also, the “effect on IASP” value in the test on internal anal sphincter (setting [2]) was “significant and sustained drop in IASP”.

For the compound `COc1ccc(C2CNC(=O)C2)cc1OC1CCCC1` (stereo not shown) [rolipram], the “effect on IASP” value with internal anal sphincter (setting [2]) was “significant drops in IASP followed by shorter recovery phases”.

With `CC(C)(C)NCC(O)c1ccc(O)c(CO)c1` (stereo not shown) [salbutamol], the “short-term effect on IASP” value in the test with internal anal sphincter (200 μg in saline delivered to the IAS, alone) was “no short-term effects on the IASP”. Also, the “effect on IASP” value in the test with internal anal sphincter (setting [3]) is “significant drop in IASP throughout the experiment”.

On to `CC(C)(C)NCC(O)c1cc(O)cc(O)c1` (stereo not shown) [terbutaline], for which the “effect on IASP” value in the test with internal anal sphincter (setting [3]) was “steady and sustained decline in IASP”.

Turning to `CCCOc1ccccc1-c1nc2nn[nH]c2c(=O)[nH]1` [zaprinast], in the test with internal anal sphincter (10 mg i.p. 2.75 hours prior to NTG bolus doses, time after i.p. dose), the “time at which duration of IASP depression by NTG peaked” value lay within 3.5 to 4 h. Further, the “duration of IASP depression by NTG (potentiation of NTG)” value in the test on internal anal sphincter (setting [4]) is on record as “increasing duration of IASP depression with consecutive doses of NTG”; in the test with internal anal sphincter (10 mg in 100 μl 1M2P i.p. 2.75 hours prior to NTG bolus doses (20 μg/min every 30 minutes)), “continued to increase with each NTG dose”. Moreover, the “reduction of mean IASP compared with vehicle treatment alone” value with internal anal sphincter (20 μL of a 5% solution in 1-methyl-2-pyrrolidinone, over 32 minutes) was 21%.
